Among the data in patent US20250346597A1, “CONDENSED HETEROCYCLIC COMPOUNDS AS INHIBITOR OF DIACYLGLYCEROL KINASES” (BEONE MEDICINES I GMBH, priority 2023, published 2025) are IC50 values, retold here.

One assay addresses DGKα (Homo sapiens (Human), UniProt P23743). Description: Biochemical DGK IC50 assay (ADP-Glo, lipid micelle substrate), DGKα. Note: full length DGKα 7.5 nM. The following applies: full length DGKα […], ATP 140 μM, DAG 80 μM. The procedure, abridged: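 Luminescent ADP-Glo detection followed a 1 h room-temperature reaction of full-length DGKα on DAG/PS micelles, in HEPES buffer with 10 mM MgCl2, 0.01 mM CaCl2, 0.1 mM Na3VO4, BSA and Tween-20. IC50 derived from inhibition across increasing compound concentrations.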

Another assay concerns the target DGKζ (Homo sapiens (Human), UniProt Q13574). In words: Biochemical DGK IC50 assay (ADP-Glo, lipid micelle substrate), DGKζ. To be noted: full length DGKζ 0.5 nM, ATP 140 μM, DAG 80 μM. The procedure, abridged:
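ADP-Glo luminescence measured ADP made in a 1 h room-temperature reaction. The enzyme was Sf9-expressed, purified full-length human DGKζ, and the substrate was DAG/PS micelles. Assay buffer held 50 mM HEPES, 10 mM MgCl2, 0.01 mM CaCl2, 0.1 mM Na3VO4 and 0.01% BSA. IC50 was derived from activity inhibition over a compound concentration series.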
For orientation: ADP-Glo first removes unused ATP, then detects ADP through luciferase.

Chain of DGKζ (Q13574 other isoform, or with tags, fused parts or gaps): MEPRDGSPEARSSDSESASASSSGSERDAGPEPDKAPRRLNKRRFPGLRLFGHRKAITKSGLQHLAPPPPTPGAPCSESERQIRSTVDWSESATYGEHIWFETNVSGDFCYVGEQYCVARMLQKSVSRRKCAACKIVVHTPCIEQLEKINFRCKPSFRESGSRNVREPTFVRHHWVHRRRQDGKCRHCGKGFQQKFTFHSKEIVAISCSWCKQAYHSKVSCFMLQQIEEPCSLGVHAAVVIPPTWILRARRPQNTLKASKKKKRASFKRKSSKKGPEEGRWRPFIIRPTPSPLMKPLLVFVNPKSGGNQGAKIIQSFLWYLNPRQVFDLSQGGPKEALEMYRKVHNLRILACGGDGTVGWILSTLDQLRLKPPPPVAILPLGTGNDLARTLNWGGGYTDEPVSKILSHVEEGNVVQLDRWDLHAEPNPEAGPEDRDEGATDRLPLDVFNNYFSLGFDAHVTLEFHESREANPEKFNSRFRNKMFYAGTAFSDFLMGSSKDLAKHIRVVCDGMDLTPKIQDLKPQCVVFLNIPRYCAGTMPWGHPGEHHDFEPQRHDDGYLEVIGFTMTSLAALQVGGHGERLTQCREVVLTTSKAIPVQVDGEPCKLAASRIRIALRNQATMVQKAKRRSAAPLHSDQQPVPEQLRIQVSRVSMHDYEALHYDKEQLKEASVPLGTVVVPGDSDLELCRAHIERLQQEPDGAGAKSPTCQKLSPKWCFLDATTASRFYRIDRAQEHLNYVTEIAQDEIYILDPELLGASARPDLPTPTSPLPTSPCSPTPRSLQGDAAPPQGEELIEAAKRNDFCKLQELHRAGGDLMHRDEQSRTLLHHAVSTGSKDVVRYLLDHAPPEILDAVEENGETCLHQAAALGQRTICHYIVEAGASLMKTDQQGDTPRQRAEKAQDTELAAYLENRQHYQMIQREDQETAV
Chain of DGKα (P23743 whole entry): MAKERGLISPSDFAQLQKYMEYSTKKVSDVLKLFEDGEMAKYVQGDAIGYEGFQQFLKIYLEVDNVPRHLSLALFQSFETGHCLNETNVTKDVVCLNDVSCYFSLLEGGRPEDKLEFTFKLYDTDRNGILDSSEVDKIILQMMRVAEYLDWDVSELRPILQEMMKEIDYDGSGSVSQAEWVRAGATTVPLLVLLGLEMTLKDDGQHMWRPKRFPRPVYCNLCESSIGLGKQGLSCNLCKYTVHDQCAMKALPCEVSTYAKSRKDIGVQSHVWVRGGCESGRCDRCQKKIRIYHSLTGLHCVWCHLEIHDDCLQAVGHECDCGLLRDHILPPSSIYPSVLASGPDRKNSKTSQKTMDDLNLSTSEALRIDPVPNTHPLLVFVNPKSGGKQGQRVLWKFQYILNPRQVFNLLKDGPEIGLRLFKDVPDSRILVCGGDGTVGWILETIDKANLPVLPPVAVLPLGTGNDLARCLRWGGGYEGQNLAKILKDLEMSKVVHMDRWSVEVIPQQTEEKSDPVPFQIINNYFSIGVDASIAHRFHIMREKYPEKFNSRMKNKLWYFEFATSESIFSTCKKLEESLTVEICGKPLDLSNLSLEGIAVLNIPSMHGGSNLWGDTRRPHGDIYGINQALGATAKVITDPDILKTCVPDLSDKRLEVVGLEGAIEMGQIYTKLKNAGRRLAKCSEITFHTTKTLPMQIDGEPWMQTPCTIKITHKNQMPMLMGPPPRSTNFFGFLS

Regarding `CC[C@H]1CN(C(C)c2ccc(CN3CCC(F)(F)CC3)cn2)[C@H](CC)CN1c1cc(=O)n(C)c2cn(CC#N)nc12` (stereo partly drawn) [Compound A182, 2-(7-((2S,5R)-4-(1-(5-((4,4-difluoropiperidin-1-yl)methyl)pyridin-2-yl)ethyl)-2,5-diethylpiperazin-1-yl)-4-methyl-5-oxo-4,5-dihydro-2H-pyrazolo[4,3-b]pyridin-2-yl)acetonitrile], the IC50 (usually the midpoint of a concentration-inhibition curve) amounted to 54 nM on DGKα and 281 nM against DGKζ.

For `CC[C@H]1CN(C(C)c2ccc(CC3COC3)cc2)[C@H](CC)CN1c1cc(=O)n(C)c2cn(CC#N)nc12` (stereo partly drawn) [Compound A183, 2-(7-((2S,5R)-2,5-diethyl-4-(1-(4-(oxetan-3-ylmethyl)phenyl)ethyl)piperazin-1-yl)-4-methyl-5-oxo-4,5-dihydro-2H-pyrazolo[4,3-b]pyridin-2-yl)acetonitrile], the figures for the IC50 on DGKα and at DGKζ were 48.2 nM and 517 nM, respectively.

`CC[C@H]1CN(C(C)c2ccc3c(c2)OCO3)[C@H](CC)CN1c1cc(=O)n(C)c2cn(CC#N)nc12` (stereo partly drawn) [Compound A185, 2-(7-((2S,5R)4-(1-(benzo[d][1,3]dioxol-5-yl)ethyl)-2,5-diethylpiperazin-1-yl)-4-methyl-5-oxo-4,5-dihydro-2H-pyrazolo[4,3-b]pyridin-2-yl)acetonitrile]: the results for the IC50 at DGKα and against DGKζ were 164 nM and 66.4 nM, respectively.

As for `CC[C@H]1CN(C(C)c2ccc(CC#N)cc2)[C@H](CC)CN1c1cc(=O)n(C)c2cn(CC#N)nc12` (stereo partly drawn) [Compound A190, 2-(4-(1-((2R,5S)-4-(2-(cyanomethyl)-4-methyl-5-oxo-4,5-dihydro-2H-pyrazolo[4,3-b]pyridin-7-yl)-2,5-diethylpiperazin-1-yl)ethyl)phenyl)acetonitrile], the IC50 on DGKα stood at 45 nM; against DGKζ it was 651 nM.

For `CC[C@H]1CN(C(C)c2ccc(C#N)cc2)[C@H](CC)CN1c1cc(=O)n(C)c2cn(CC#N)nc12` (stereo partly drawn) [Compound A191, 4-(1-((2R,5S)-4-(2-(cyanomethyl)-4-methyl-5-oxo-4,5-dihydro-2H-pyrazolo[4,3-b]pyridin-7-y)-2,5-diethylpiperazin-1-yl)ethyl)benzonitrile], the IC50 is below 23.3 nM against DGKα and 285 nM at DGKζ.

Take `CC[C@H]1CN(C(C)c2ccc(CN3CCS(=O)(=O)CC3)cc2)[C@H](CC)CN1c1cc(=O)n(C)c2cn(CC#N)nc12` (stereo partly drawn) [Compound A192, 2-(7-((2S,5R)-4-(1-(4-((1,1-dioxidothiomorpholino)methyl)phenyl)ethyl)-2,5-diethylpiperazin-1-yl)-4-methyl-5-oxo-4,5-dihydro-2H-pyrazolo[4,3-b]pyridin-2-yl)acetonitrile]: the IC50 came out at 729 nM against DGKα and 579 nM against DGKζ.

With `CC[C@H]1CN(C(C)c2cc3c(cn2)OCC3)[C@H](CC)CN1c1cc(=O)n(C)c2cn(CC#N)nc12` (stereo partly drawn) [Compound A196, 2-(7-((2S,5R)-4-(1-(2,3-dihydrofuro[2,3-c]pyridin-5-yl)ethyl)-2,5-diethylpiperazin-1-yl)-4-methyl-5-oxo-4,5-dihydro-2H-pyrazolo[4,3-b]pyridin-2-yl)acetonitrile], the results for the IC50 on DGKα and at DGKζ were 1020 nM and 552 nM, respectively.

For the compound `CC[C@H]1CN(C(C)c2ccc3c(c2)OC(F)(F)O3)[C@H](CC)CN1c1cc(=O)n(C)c2cn(CC#N)nc12` (stereo partly drawn) [Compound A197, 2-(7-((2S,5R)-4-(1-(2,2-difluorobenzo[d][1,3]dioxol-5-yl)ethyl)-2,5-diethylpiperazin-1-yl)-4-methyl-5-oxo-4,5-dihydro-2H-pyrazolo[4,3-b]pyridin-2-yl)acetonitrile], the IC50 against DGKα worked out at 711 nM; at DGKζ, 252 nM.

Consider `CC[C@H]1CN(C(C)c2ccc(CS(C)(=O)=O)cc2)[C@H](CC)CN1c1cc(=O)n(C)c2cn(CC#N)nc12` (stereo partly drawn) [Compound A198, 2-(7-((2S,5R)-2,5-diethyl-4-(1-(4-((methylsulfonyl)methyl)phenyl)ethyl)piperazin-1-yl)-4-methyl-5-oxo-4,5-dihydro-2H-pyrazolo[4,3-b]pyridin-2-yl)acetonitrile], for which the IC50 was 91 nM at DGKα and 5560 nM against DGKζ.

Consider `CC[C@H]1CN(C(C)c2ccc(C(C)(F)F)nc2)[C@H](CC)CN1c1cc(=O)n(C)c2cn(CC#N)nc12` (stereo partly drawn) [Compound A199, 2-(7-((2S,5R)-4-(1-(6-(1,1-difluoroethyl)pyridin-3-yl)ethyl)-2,5-diethylpiperazin-1-yl)-4-methyl-5-oxo-4,5-dihydro-2H-pyrazolo[4,3-b]pyridin-2-yl)acetonitrile], for which the IC50 against DGKα turned out to be 2170 nM; at DGKζ, 112 nM.

Take `CC#CCn1cc2c(n1)c(N1C[C@@H](CC)N(C(C)c3ccc4c(n3)OCC4)C[C@@H]1C)cc(=O)n2C` (stereo partly drawn) [Compound A200, 2-(but-2-yn-1-yl)-7-((2S,5R)-4-(1-(2,3-dihydrofuro[2,3-b]pyridin-6-yl)ethyl)-5-ethyl-2-methylpiperazin-1-yl)-4-methyl-2,4-dihydro-5H-pyrazolo[4,3-b]pyridin-5-one]: the IC50 on DGKα was below 23.3 nM; against DGKζ, 991 nM.

For `CC[C@H]1CN(C(C)c2ccc(OC3CC3)cn2)[C@H](CC)CN1c1cc(=O)n(C)c2cn(CC#N)nc12` (stereo partly drawn) [Compound A201, 2-(7-((2S,5R)-4-(1-(5-cyclopropoxypyridin-2-yl)ethyl)-2,5-diethylpiperazin-1-yl)-4-methyl-5-oxo-4,5-dihydro-2H-pyrazolo[4,3-b]pyridin-2-yl)acetonitrile], the IC50 on DGKα is 43 nM; on DGKζ, 123 nM.

`CC[C@H]1CN(C(C)c2ccc(C(=O)N3CCC(OC)C3)cc2)[C@H](CC)CN1c1cc(=O)n(C)c2cn(CC#N)nc12` (stereo partly drawn) [Compound A202, 2-(7-((2S,5R)-2,5-diethyl-4-(1-(4-(3-methoxypyrrolidine-1-carbonyl)phenyl)ethyl)piperazin-1-yl)-4-methyl-5-oxo-4,5-dihydro-2H-pyrazolo[4,3-b]pyridin-2-yl)acetonitrile]: the IC50 against DGKα was 352 nM; at DGKζ it was 3210 nM.

For the compound `CC[C@H]1CN(C(C)c2ccc(COC)cc2)[C@H](CC)CN1c1cc(=O)n(C)c2cn(CC#N)nc12` (stereo partly drawn) [Compound A205, 2-(7-((2S,5R)-2,5-diethyl-4-(1-(4-(methoxymethyl)phenyl)ethyl)piperazin-1-yl)-4-methyl-5-oxo-4,5-dihydro-2H-pyrazolo[4,3-b]pyridin-2-yl)acetonitrile], the IC50 on DGKα was 215 nM; at DGKζ, 142 nM.
